Assay results from US12570675B2, “Boronic acid compounds” (LG CHEM, LTD., priority 2020, dated 2026).

Experiments:
[1] = molecular target: Proteasome chymotrypsin-like activity (S26 protein from RPMI8226 cells) (Homo sapiens, UniProt P28074); assay type: biochemical; conditions: S26 protein from RPMI8226 cell extract 2 ug/well, substrate 20 uM, 37° C., 90 minutes; read-out: Proteasome chymotrypsin-like activity inhibition IC50
Procedure, shortened: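 Inhibition is measured in crude proteasome (S26) from RPMI8226 cells at 2 ug/well, using 20 uM substrate specific to each activity: Suc-LLVY-AMC for chymotrypsin-like, Z-LLE-AMC for caspase-like. Compounds span a dilution series from 10 uM.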

[2] = molecular target: Proteasome caspase-like activity (S26 protein from RPMI8226 cells) (Homo sapiens (Human), UniProt P28072); test: Proteasome caspase-like activity inhibition (Z-Leu-Leu-Glu-AMC fluorogenic substrate, RPMI8226 cell extract); assay type: biochemical; conditions: S26 protein from RPMI8226 cell extract 2 ug/well, substrate 20 uM, 37° C., 90 minutes
Sequence of Proteasome caspase-like activity (S26 protein from RPMI8226 cells) (P28072 whole entry): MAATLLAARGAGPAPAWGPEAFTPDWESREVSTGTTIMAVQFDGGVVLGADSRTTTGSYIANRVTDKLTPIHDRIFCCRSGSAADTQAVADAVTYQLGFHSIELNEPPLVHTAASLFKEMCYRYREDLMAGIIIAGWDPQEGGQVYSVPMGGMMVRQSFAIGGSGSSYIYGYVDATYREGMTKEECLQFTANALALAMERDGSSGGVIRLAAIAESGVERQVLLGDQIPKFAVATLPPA
Description: The abilities to inhibit the proteasome activity of the compounds described in the Examples of the present invention and boronic acid drugs were evaluated as follows.
RPMI8226 cells, which is a multiple myeloma cell line, were cultured and then separated by a centrifuge, and washed twice with phosphate buffered saline (PBS). 20 mM of a tris-HCl (pH 8.0) buffer solution was added to the washed cells, and the cells were disrupted by a homogenizer and centrifuged to obtain S26 protein from the supernatant. Suc-Leu-Leu-Val-Tyr-AMC, for a fluorogenic substrate for the chymotrypsin-like activity of the proteasome, and Z-Leu-Leu-Glu-AMC, for a fluorogenic substrate for the caspase-like activity, were purchased from Calbiochem, EMD Millipore and used. Into each well of a 96-well plate (opaque, black round bottom), 20 ul of the S26 protein (final RPMI8226 cell extract concentration: 2 ug/well), 10 ul of S26 proteasome inhibitor serially diluted from 10 uM (final DMSO concentration: 0.5%), and 20 ul of the fluorogenic substrate for the proteasome chymotrypsin-like or caspase-like activity (final concentration: 20 uM) were added and mixed and allowed to react in a 37° C. incubator for 90 minutes. The fluorescence of the fluorogenic substrate was measured by FlexStation II Fluorometer (Molecular Devices). The fluorescence inhibited by the compound diluted at each concentration was measured as the relative percentage value for the amount obtained from the treatment only with the S26 protein and the fluorogenic substrate. IC50 (inhibitory concentration 50) was expressed in terms of a concentration that inhibits 50% of the maximum fluorescence induced by the fluorogenic substrate.

Sequence of Proteasome chymotrypsin-like activity (S26 protein from RPMI8226 cells) (P28074 60-263 limits assumed): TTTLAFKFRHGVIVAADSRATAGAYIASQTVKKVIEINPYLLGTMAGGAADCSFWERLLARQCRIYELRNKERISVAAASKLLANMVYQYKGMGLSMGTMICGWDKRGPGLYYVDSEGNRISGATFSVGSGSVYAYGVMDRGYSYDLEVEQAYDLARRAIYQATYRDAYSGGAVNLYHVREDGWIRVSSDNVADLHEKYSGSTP

IC50 [1] [nM] | IC50 [2] [nM] | SMILES
< 10 | > 1000 | CC(C)C[C@H](NC(=O)C1(Cc2ccccc2)CC(CNC(=O)c2cccc3c2CCCC3)=NO1)B(O)O (stereo partly drawn) [Example 115, ((1R)-1-(5-benzyl-3-((5,6,7,8-tetrahydronaphthalen-1-carboxamido)methyl)-4,5-dihydroisoxazol-5-carboxamido)-3-methylbutyl)boronic acid]
< 10 | > 2500 | CC(C)C[C@H](NC(=O)C1(Cc2ccccc2)CC(CNC(=O)c2cccc3ncccc23)=NO1)B(O)O (stereo partly drawn) [Example 116, ((1R)-1-(5-benzyl-3-((quinolin-5-carboxamido)methyl)-4,5-dihydroisoxazol-5-carboxamido)-3-methylbutyl)boronic acid]
< 10 | > 1000 | Cc1nc(C(=O)NCC2=NOC(Cc3ccccc3)(C(=O)N[C@@H](CC(C)C)B(O)O)C2)cs1 (stereo partly drawn) [Example 117, ((1R)-1-(5-benzyl-3-((2-methylthiazol-4-carboxamido)methyl)-4,5-dihydroisoxazol-5-carboxamido)-3-methylbutyl)boronic acid]
< 10 | > 1000 | Cc1nc(C(=O)NCC2=NOC(Cc3ccccc3)(C(=O)N[C@@H](CC(C)C)B(O)O)C2)c(Cl)s1 (stereo partly drawn) [Example 119, ((1R)-1-(5-benzyl-3-((5-chloro-2-methylthiazol-4-carboxamido)methyl)-4,5-dihydroisoxazol-5-carboxamido)-3-methylbutyl)boronic acid]
< 10 | > 500 | CC(C)C[C@H](NC(=O)C1(Cc2ccccc2)CC(CNC(=O)c2c[nH]c3ccccc23)=NO1)B(O)O (stereo partly drawn) [Example 124, ((1R)-1-(3-((1H-indol-3-carboxamido)methyl)-5-benzyl-4,5-dihydroisoxazol-5-carboxamido)-3-methylbutyl)boronic acid]
< 10 | > 500 | Cc1cccc(CC2(C(=O)N[C@@H](CC(C)C)B(O)O)CC(CNC(=O)c3nccc4ccccc34)=NO2)c1 (stereo partly drawn) [Example 125, ((1R)-1-(3-((isoquinolin-1-carboxamido)methyl)-5-(3-methylbenzyl)-4,5-dihydroisoxazol-5-carboxamido)-3-methylbutyl)boronic acid]
< 10 | > 500 | CC(C)C[C@H](NC(=O)C1(COc2ccccc2)CC(CNC(=O)c2nccc3ccccc23)=NO1)B(O)O (stereo partly drawn) [Example 126, ((1R)-1-(3-((isoquinolin-1-carboxamido)methyl)-5-(phenoxymethyl)-4,5-dihydroisoxazol-5-carboxamido)-3-methylbutyl)boronic acid]
< 10 | > 500 | CC(C)C[C@H](NC(=O)C1(Cc2ccccc2)CC(CNC(=O)c2cccc3[nH]ccc23)=NO1)B(O)O (stereo partly drawn) [Example 127, ((1R)-1-(3-((1H-indol-4-carboxamido)methyl)-5-benzyl-4,5-dihydroisoxazol-5-carboxamido)-3-methylbutyl)boronic acid]
< 10 | > 250 | CC(C)C[C@H](NC(=O)C1(Cc2ccccc2)CC(CNC(=O)c2ccc3c(ccn3C(C)C)c2)=NO1)B(O)O (stereo partly drawn) [Example 129, ((1R)-1-(5-benzyl-3-((1-isopropyl-1H-indol-5-carboxamido)methyl)-4,5-dihydroisoxazol-5-carboxamido)-3-methylbutyl)boronic acid]
< 10 | > 500 | Cc1nc(C)c(C(=O)NCC2=NOC(Cc3ccccc3)(C(=O)N[C@@H](CC(C)C)B(O)O)C2)s1 (stereo partly drawn) [Example 130, ((1R)-1-(5-benzyl-3-((2,4-dimethylthiazol-5-carboxamido)methyl)-4,5-dihydroisoxazol-5-carboxamido)-3-methylbutyl)boronic acid]
< 10 | > 250 | CC(C)C[C@H](NC(=O)C1(Cc2ccccc2)CC(CNC(=O)c2cccn3ccnc23)=NO1)B(O)O (stereo partly drawn) [Example 132, ((1R)-1-(5-benzyl-3-((imidazo[1,2-a]pyridin-8-carboxamido)methyl)-4,5-dihydroisoxazol-5-carboxamido)-3-methylbutyl)boronic acid]
